For data set [1] the following is noted: background art; cited from earlier work.
A further data set deals with PGDH. Particulars: Gandolfi et al.; cited from earlier work.
Data set [2] in a line: enteropooling assay (diarrheogenic effect, Robert). The format is in vivo. The following applies: in vivo; for selectivity ratio: enteropooling dose relative to ED50 cytoprotection, defined in drawing 10, read-out: TI (therapeutic index). From the text: (§1) One of the most important side-effects of prostaglandins and prostaglandin analogues is their diarrheogenic effect. An assay was developed by Robert to test the diarrheogenic properties of prostaglandins and prostaglandin analogues. The test quantitatively determines the amount of "enteropooling", i.e. the accumulation of fluid into the small intestine.

For data set [3] the following is noted: rat model; compared to natural prostaglandin PGE2; cited from earlier work.
Data set [4] concerns gastric ulceration. As to the kind of experiment: gastric ulceration in patients, capsules administered twice daily. Type of data set: in vivo. The following applies: patient ca. 70 kg.
The test system of the next data set is stomach mucosa. As to the kind of experiment: cytoprotective activity in rats (absolute ethanol induced stomach mucosa lesions). Particulars: for Cytoprotection % / ED50: oral, rat; for ED50: read-out: ED50 Cytoprotection. Type of data set: in vivo, Sprague-Dawley rats. As for the experimental part:
A number of the 13,14-didehydro-15-oxo-prostaglandin analogues have been tested for cytoprotective activity in rats. In this test, Sprague-Dawley rats were fasted for 24 hours prior to the pretreatment. […] The control animals were given 2.5 ml of the vehicle, without prostaglandin analogue. A half hour later after the pretreatment, absolute ethanol was administered orally to the animals, in a dose of 10 mL per kg body weight. One hour later the animals were sacrificed, their stomachs dissected out, opened along the greater curvature and the mucosa examined for lesions. The average lesion length is expressed as percentage of the average lesion length found in the stomach mucosa of control animals.
Importantly, this test measures the active cytoprotective properties of the prostaglandin analogues, independent of the gastric secretion inhibition that these compounds may or may not show. The test is discussed more fully by Robert et al., Gastroenterology 77 (1979) 433, incorporated herein by reference.

The test system of another data set is small intestine. Description: enteropooling assay (diarrheogenic effect, Robert). The format is in vivo.
Text: as §1

For data set [5] the following is noted: metabolism / intragastric dehydrogenation at C15; cited from earlier work.
Data set [6] deals with gastric ulceration. As to the kind of experiment: gastric ulceration in arthritis patients receiving aspirin, tablets four times daily. The following applies: tablets orally four times daily; patients with arthritis on 1000 mg aspirin daily. Type of data set: in vivo.
In another data set the test system is rat fundic strip. Description: smooth muscle contraction, rat fundic strip assay. As for the experimental part: The smooth muscle contraction potency of compound 1 was tested in the rat fundic strip assay, described by W. L. M. Perry in "Pharmacological Experiments on Isolated Preparations," 2nd ed. (1970), pp. 88-89, Churchill L. Livingstone, publisher.
A further data set has as its system pregnant quinea pigs. Description: abortificative effect in pregnant guinea pigs. Type of data set: in vivo. The following applies: 25 mg/kg oral, days 43 and 44 of gestation, 6 animals. How it is done:
Another important side effect of natural prostaglandins and prostaglandin analogues is their abortificative effect. Compound 1 was tested for this effect as follows.

Where [7] appears, read: dose 0.5 mg/kg, negative = lesions worse than control.

As usually defined, the ED50 is the dose that gives a 50% effect, or the effect in half of the subjects. One may read the EC50 as the midpoint of the concentration-response curve.

As to `CCCC[C@H](C)[C@H](O)C#C[C@H]1[C@H](O)CC(=O)[C@@H]1C/C=C\CCCC(=O)O` [16(S),16-methyl-13-dehydro PGE2], the “gastric anti-ulcer properties / activity” value in data set [1] is listed as “potent gastric anti-ulcer properties”. Besides, the “substrate for the enzyme PGDH” value in the data set on PGDH was “not substrates for the enzyme PGDH”.

With `CCCCC(C)(C)[C@H](O)/C=C/[C@H]1[C@H](O)CC(=O)[C@@H]1C/C=C\CCCC(=O)O` [16,16-dimethyl PGE2], in data set [2], the TD50 stood at 0.0005 mg/kg and the selectivity ratio came out at 10. The “ED50 for cytoprotection” value in data set [3] was “lower value of the ED50”.

Take `CCCCCC(=O)C#C[C@H]1[C@H](O)CC(=O)[C@@H]1CCCCCCC(=O)O` [13,14-didehydro-15-oxo PGE1]: in the data set on gastric ulceration [4], the “reduction of gastric ulceration” value is listed as “substantially reduce gastric ulceration”.

Turning to `CCCCCC(=O)C#C[C@H]1CCC(=O)[C@@H]1CCCCCCC(=O)OC` (relative stereo) [PGE1 triple oxo (a) (d)], the Cytoprotection % in the data set with stomach mucosa (setting [7]) is listed as 39%; in the data set on stomach mucosa (dose 1 mg/kg), 81%; in the data set with stomach mucosa (dose 3 mg/kg) it was 78%; in the data set on stomach mucosa (dose 5 mg/kg) it was 96%.

Consider `CCCCC[C@H](O)/C=C/[C@H]1[C@H](O)CC(=O)[C@@H]1C/C=C\CCCC(=O)O` [PGE2], for which the “Enteropooling Dose (ED50 for enteropooling)” value with small intestine (in vivo) is 0.750 mg/kg. In addition, in data set [2], the selectivity ratio was 30. In data set [5], the “stability” value was “readily metabolized”. Moreover, in the data set on stomach mucosa, the ED50 amounted to 0.025 mg/kg.

`CCCCCC(=O)C#C[C@@H]1[C@@H](C/C=C\CCCC(=O)OC)[C@@H](O)C[C@H]1O` [PGF2α triple oxo (a), 13,14-didehydro-15-keto PGF2α methyl ester]: the “cytoprotective potency” value in the data set with stomach mucosa (compared with PGF2α itself (tests nos. 7-10)) is given as “much more potent cytoprotective agent”. Besides, the Cytoprotection % in the data set with stomach mucosa (dose 0.001 mg/kg) amounted to 6%; in the data set with stomach mucosa (dose 0.01 mg/kg) it was 23%; in the data set on stomach mucosa (dose 0.1 mg/kg), 50%; in the data set with stomach mucosa (setting [7]), 98%.

For the compound `CCCCCC(=O)/C=C/[C@H]1CCC(=O)[C@@H]1CCCCCCC(=O)OC` (relative stereo) [PGE1 trans oxo (a) (d)], the Cytoprotection % is recorded as -22% with stomach mucosa (setting [7]) and 52% in the data set with stomach mucosa (dose 3 mg/kg).

For the compound `CCCCCC(=O)C#C[C@@H]1[C@@H](C/C=C\CCCC(=O)O)[C@@H](O)C[C@H]1O` [13,14-didehydro-15-oxo-PGF2α], the “reduction of incidence of gastric ulceration” value in the data set on gastric ulceration [6] is listed as “effectively reduces the incidence of gastric ulceration”.

As for `CCCCCC(=O)C#C[C@H]1CCC(=O)[C@@H]1CCCCCCC(=O)O` (relative stereo) [Compound 1, 11-Deoxy-13,14-didehydro-15-oxo PGE1], the “diarrheogenic effect” value in the data set with small intestine (compared to PGE2 and PGE2 analogues) is “very low diarrheogenic effect”. In addition, in the data set with small intestine (compared with the other compounds of table 2), the “therapeutic index” value was “significantly higher”. For the same compound, in [2], the TD50 stood at 25 mg/kg and the selectivity ratio was determined as 250. Further, in the data set on rat fundic strip (compound 1 EC50 higher than that of PGE2), the “EC50 for smooth muscle contraction relative to PGE2” value is given as “three orders of magnitude higher”. The “EC50 for smooth muscle contraction relative to PGF2α and PGE1” value in the data set with rat fundic strip (compound 1 EC50 higher than that of PGF2α and PGE1) is “two orders of magnitude higher”. Also, the EC50 with rat fundic strip (rat fundic strip) is 5 µM. Further, the abortion induced result with pregnant quinea pigs is “in none of the animals did the dose of compound 1 induce abortion”. Also, the ED50 in the data set with stomach mucosa came to 0.1 mg/kg.

Regarding `CCCCC[C@H](O)/C=C/[C@@H]1[C@@H](C/C=C\CCCC(=O)OC)[C@@H](O)C[C@H]1O` [PGF2α trans OH (a)], the Cytoprotection % in the data set with stomach mucosa (dose 0.001 mg/kg) is -19%; with stomach mucosa (dose 0.01 mg/kg), 1.7%; in the data set on stomach mucosa (dose 0.1 mg/kg) it was -17%; in the data set on stomach mucosa (setting [7]), 82%.

Consider `CCCC[C@@H](C)[C@H](O)C#C[C@H]1[C@H](O)CC(=O)[C@@H]1C/C=C\CCCC(=O)O` [16(R),16-methyl-13-dehydro PGE2], for which the “gastric anti-ulcer properties / activity” value in data set [1] was “potent gastric anti-ulcer properties”. Further, the “substrate for the enzyme PGDH” value with PGDH is given as “not substrates for the enzyme PGDH”.

As for `CCCCC[C@@](C)(O)/C=C/[C@H]1[C@H](O)CC(=O)[C@@H]1C/C=C\CCCC(=O)O` [15(R)-15-methyl PGE2], in data set [2], the TD50 was found to be 0.005 mg/kg and the selectivity ratio fell in the range of 25 to 100. Besides, the “stability” value in data set [5] is recorded as “better stability”. In data set [3], the “ED50 for cytoprotection” value was “lower value of the ED50”.

With `CCCCC[C@](C)(O)/C=C/[C@H]1[C@H](O)CC(=O)[C@@H]1C/C=C\CCCC(=O)O` [15(S),15-methyl PGE2], the “stability” value in data set [5] is given as “more stable than PGE2 itself”.

Values taken from US4576962A, “Prostaglandin analogues” (priority 1984, dated 1986).
